Experimental data taken from patent US20100092574A1, “SYNERGISTIC PEROXIDE BASED BIOCIDAL COMPOSITIONS” (priority 2008, published 2010).
Each block holds one compound with its values, some of them ahead of it.

Key:
[1] = tested on: Pseudomonas aeruginosa; test: Bactericidal efficacy of sulfite and hydrogen peroxide solutions in the absence of pulp; type: cell-based; settings: for 3 h Reduction: pH 7.0, 3 h at 37° C.; for reduction: 50 ppm hydrogen peroxide, 3 h
From the text: (§1) The expression “1 g cfu/mL” denotes the common (decadic) logarithm of the number of colony-forming units per milliliter or, in connection with the term “reduction”, the common logarithm of the quotient of the number of colony-forming units per milliliter before treatment and the number of colony-forming units after treatment. Unless otherwise indicated all concentrations in percent or ppm are expressed on a weight basis.
The bactericidal efficacy of solutions containing sulfite and hydrogen peroxide was further investigated in the absence of pulp. Efficacy was measured against Pseudomonas aeruginosa grown in nutrient in the presence of 83 and 830 ppm sulfite. The sulfite-containing P. aeruginosa inoculum was then diluted 1:99 with Butterfield's buffer at pH 7.0. The sulfite concentrations in Table 5 below are the those in the final dilution. The dilutions were then contacted with 50 ppm hydrogen peroxide for 3 h at 37° C.

[2] = tested on: microbial population of sulfite bleached pulp slurry (total aerobic counts); test: Biocidal performance in sulfite bleached pulp slurry, total aerobic counts (tryptone soy agar plating); type: cell-based; settings: for amount alone required to achieve 1 g cfu/mL reduction of 4.2: single agent; for 3 h Reduction: 3 h contact; for 24 h Reduction: 24 h contact
From the text: as §1
Synergistic biocidal performance upon co-application of sulfite with hydrogen peroxide at elevated pH was investigated. The sulfite and peroxide concentrations indicated in Table 3 below were added to an aqueous solution made from: (a) deionized water, (b) NaHCO3 to achieve a carbonate buffer concentration of 200 ppm (as CaCO3 total alkalinity), (c) sulfite bleached pulp slurry to achieve a final consistency of 0.05%, carrying an associated minimal concentration of residual sulfite of 6 ppm, and (d) NaOH to achieve a pH of 9.0.
The microbial population was that provided by preparing the pulp slurry 24-48 h prior to testing and storing at room temperature, thus allowing microbial growth to a high test level. […] Populations reported are total aerobic counts using tryptone soy agar plating.
SI=(level of A)/(efficacious level of A)+(level of B)/(efficacious level of B) (3)
Synergy upon co-application of sulfite with hydrogen peroxide at higher concentrations of sulfite and hydrogen peroxide was investigated. The conditions were the same as in Example 3.

[3] = Residual sulfite and hydrogen peroxide content after mixing (co-stability); type: physicochemical
Protocol: Aqueous solutions containing sodium sulfite and hydrogen peroxide were mixed at 21° C. to obtain a solution having a sulfite content (as SO3^2−) of 40 ppm, a hydrogen peroxide content of 20.0 ppm and a pH of 6.7. The temperature of the solution was maintained at 21° C. and the residual sulfite and peroxide content was determined at 15, 30 and 60 minutes after mixing. The procedure consisted of adding a known amount of 1-chloro-5,5-dimethylhydantoin (MCDMH) to the samples in excess of the estimated residual sulfite content. The remaining MCDMH concentration was then measured by standard DPD total halogen methodologies. As sulfite rapidly neutralizes MCDMH at all pHs the sulfite concentration is the concentration of MCDMH added less the concentration of MCDMH measured, see Equation 1 below.
[Sulfite]=[MCDMHadded]−[MCDMHmeasured] (1)
The H2O2 concentration was determined by recording the concentration of H2O2 measured using acidic thiosulfate titration with KI indicator (HACH HYP-1 hydrogen peroxide test kit—Hach Co., Loveland, Colo.). Since this titration is run at acidic pH, this method yields the concentration of H2O2 in excess of the sulfite concentration contained in the sample. As the sulfite concentration is known from the MCMDH analysis and Equation 1, the H2O2 concentration can be calculated using the following Equation 2:
[H2O2]=[H2O2 measured]+[Sulfitecalculated] (2)
The estimated error in the methodology is ±1 ppm
The procedure of Example 1 was repeated with the difference that the pH of the mixed solution was 9.0 and the residual concentrations were determined 5, 15, 30, 60, 120 and 1080 minutes after mixing.

[4] = Stability of active halogen species in the presence of residual H2O2; type: physicochemical
Protocol: The stability of nitrogen-bound active halogen species in the presence of residual H2O2 was investigated. Free and total chlorine concentrations were measured by standard DPD methodology and the total H2O2 concentration by acidic […] titration. The concentration of MCDMH is the concentration of the total active halogen less the concentration of free active halogen. The concentration of H2O2 is the total oxidant concentration less the MCDMH concentration. […] The indicated reaction is shown in Equation 6.
The effect of the addition of a molar equivalent of 5,5-dimethylhydantoin (DMH) to NaOCl solutions prior to combination with hydrogen peroxide was investigated. The concentration of MCDMH is the concentration of the total active halogen less the concentration of free active halogen. The concentration of H2O2 is the total oxidant concentration less the MCDMH concentration.

[5] = Table 3 Test No. 2: sulfite 32 ppm, peroxide 0 ppm, pH 9.0
[6] = Table 3 Test No. 3: sulfite 128 ppm, peroxide 0 ppm, pH 9.0
[7] = Table 4 Test No. 2: sulfite 128 ppm, peroxide 0 ppm
[8] = Table 4 Test No. 3: sulfite 512 ppm, peroxide 0 ppm
[9] = pH 6.7, 21° C., start 40 ppm sulfite + 20.0 ppm H2O2, 15 min
[10] = pH 6.7, 21° C., start 40 ppm sulfite + 20.0 ppm H2O2, 30 min
[11] = pH 6.7, 21° C., start 40 ppm sulfite + 20.0 ppm H2O2, 60 min
[12] = pH 9.0, start 40 ppm sulfite + 20.0 ppm H2O2, 5 min
[13] = pH 9.0, start 40 ppm sulfite + 20.0 ppm H2O2, 15 min
[14] = pH 9.0, start 40 ppm sulfite + 20.0 ppm H2O2, 30 min
[15] = pH 9.0, start 40 ppm sulfite + 20.0 ppm H2O2, 60 min
[16] = pH 9.0, start 40 ppm sulfite + 20.0 ppm H2O2, 120 min
[17] = pH 9.0, start 40 ppm sulfite + 20.0 ppm H2O2, 1080 min
[18] = 2.1 ppm H2O2 + 1.0 ppm NaOCl (as Cl2), 1 min
[19] = 2.1 ppm H2O2 + 1.0 ppm NaOCl (as Cl2), 5 min
[20] = 2.1 ppm H2O2 + 1.0 ppm NaOCl (as Cl2), 15 min
[21] = combination of 2.1 ppm H2O2 with 1 ppm NaOCl (as Cl2), immediate
[22] = 2.1 ppm H2O2 + 1.0 ppm DMH stabilized NaOCl, 1 min
[23] = 2.1 ppm H2O2 + 1.0 ppm DMH stabilized NaOCl, 5 min
[24] = 2.1 ppm H2O2 + 1.0 ppm DMH stabilized NaOCl, 60 min
[25] = Example 3, hydrogen peroxide alone (40-160 ppm per Table 3)
[26] = Example 4, hydrogen peroxide alone at 120-160 ppm
[27] = Table 3 Test No. 4: sulfite 0 ppm, peroxide 40 ppm, pH 9.0
[28] = Table 3 Test No. 5: sulfite 0 ppm, peroxide 160 ppm, pH 9.0
[29] = Table 4 Test No. 4: sulfite 0 ppm, peroxide 120 ppm
[30] = Table 4 Test No. 5: sulfite 0 ppm, peroxide 150 ppm
[31] = Table 4 Test No. 6: sulfite 0 ppm, peroxide 160 ppm
[32] = 2.1 ppm H2O2 + 1.0 ppm DMH stabilized NaOCl, 15 min

Structure (SMILES): O=S([O-])[O-].[Na+].[Na+] [Sulfite, sodium sulfite]
3 h Reduction ([1]; Table 5 Test No. 2: sulfite 8.3 ppm, peroxide 0 ppm): 0.1 lg cfu/mL
3 h Reduction ([1]; Table 5 Test No. 3: sulfite 0.83 ppm, peroxide 0 ppm): 0.0 lg cfu/mL
effect on bacterial populations ([2]; Example 3, sulfite alone at 32-128 ppm): no significant effect
amount alone required to achieve 1 g cfu/mL reduction of 4.2 ([2]; Example 4): > 512 ppm
effect on the microbial populations ([2]; Example 4, sulfite at 128-512 ppm): no significant effect
3 h Reduction [2, 5]: −0.40 lg cfu/mL
24 h Reduction [2, 5]: 0.11 lg cfu/mL
3 h Reduction [2, 6]: −0.50 lg cfu/mL
24 h Reduction [2, 6]: −0.45 lg cfu/mL
3 h Reduction [2, 7]: 0.32 lg cfu/mL
24 h Reduction [2, 7]: 0.11 lg cfu/mL
3 h Reduction [2, 8]: 0.08 lg cfu/mL
24 h Reduction [2, 8]: −0.45 lg cfu/mL
Sulfite (as H2O2) [3, 9]: 3.1 ppm
Sulfite (as SO3^2−) ([3]; pH 6.7, 21° C., start 40 ppm sulfite + 20.0 ppm H2O2, 15 min after mixing): 7.2 ppm
Sulfite (as H2O2) [3, 10]: 2.3 ppm
Sulfite (as SO3^2−) ([3]; pH 6.7, 21° C., start 40 ppm sulfite + 20.0 ppm H2O2, 30 min after mixing): 5.4 ppm
Sulfite (as H2O2) [3, 11]: 0.0 ppm
Sulfite (as SO3^2−) ([3]; pH 6.7, 21° C., start 40 ppm sulfite + 20.0 ppm H2O2, 60 min after mixing): 0.0 ppm
Sulfite (as H2O2) [3, 12]: 7.9 ppm
Sulfite (as SO3^2−) [3, 12]: 18.7 ppm
Sulfite (as H2O2) [3, 13]: 6.8 ppm
Sulfite (as SO3^2−) [3, 13]: 16.0 ppm
Sulfite (as H2O2) [3, 14]: 6.7 ppm
Sulfite (as SO3^2−) [3, 14]: 15.7 ppm
Sulfite (as H2O2) [3, 15]: 6.2 ppm
Sulfite (as SO3^2−) [3, 15]: 14.6 ppm
Sulfite (as H2O2) [3, 16]: 5.2 ppm
Sulfite (as SO3^2−) [3, 16]: 12.3 ppm
Sulfite (as H2O2) [3, 17]: 0.1 ppm
Sulfite (as SO3^2−) [3, 17]: 0.3 ppm

Free active halogen DPD (as Cl2) [4, 18]: 0.0 ppm
Indicated Species NaOCl (as Cl2) [4, 18]: 0.0 ppm
Total active halogen DPD (as Cl2) [4, 18]: 0.0 ppm
Indicated Species NaOCl (as Cl2) [4, 19]: 0.0 ppm
Indicated Species NaOCl (as Cl2) [4, 20]: 0.0 ppm
free chlorine after combination [4, 21]: no detectable free chlorine
Structure (SMILES): [Na+].[O-]Cl [NaOCl]

Indicated Species H2O2 [4, 22]: 2.1 ppm
Indicated Species H2O2 [4, 23]: 1.9 ppm
Indicated Species H2O2 [4, 24]: 2.3 ppm
Indicated Species H2O2 [4, 18]: 1.8 ppm
Indicated Species H2O2 [4, 19]: 1.8 ppm
Indicated Species H2O2 [4, 20]: 1.4 ppm
H2O2 residue [4, 21]: ~1.6 ppm
H2O2 [3, 9]: 6.1 ppm
H2O2 [3, 10]: 5.1 ppm
H2O2 [3, 11]: 2.4 ppm
H2O2 [3, 12]: 16.9 ppm
H2O2 [3, 13]: 14.8 ppm
H2O2 [3, 14]: 14.7 ppm
H2O2 [3, 15]: 15.2 ppm
H2O2 [3, 16]: 13.2 ppm
H2O2 [3, 17]: 8.1 ppm
Structure (SMILES): OO [hydrogen peroxide]
reduction ([1]; P. aeruginosa grown up in 830 ppm sulfite diluted to 8.3 ppm during application): 1.5 1 g cfu/mL
reduction ([1]; P. aeruginosa grown up in the absence of sulfite): 0.9 1 g cfu/mL
3 h Reduction ([1]; Table 5 Test No. 4: sulfite 0 ppm, peroxide 50 ppm): 0.9 lg cfu/mL
reduction in 3 h [2, 25]: 1.2-3.5 1 g cfu/mL
reduction in 24 h [2, 25]: 5.5 1 g cfu/mL
reduction in 3 h [2, 26]: 3.3-4.0 1 g cfu/mL
reduction in 24 h [2, 26]: 3.7-5.5 1 g cfu/mL
amount alone required to achieve 1 g cfu/mL reduction of 4.2 ([2]; Example 4): ≥ 150 ppm
3 h Reduction [2, 27]: 1.2 lg cfu/mL
24 h Reduction [2, 27]: 5.5 lg cfu/mL
3 h Reduction [2, 28]: 3.5 lg cfu/mL
24 h Reduction [2, 28]: 5.5 lg cfu/mL
3 h Reduction [2, 29]: 4.0 lg cfu/mL
24 h Reduction [2, 29]: 4.5 lg cfu/mL
3 h Reduction [2, 30]: 4.2 lg cfu/mL
24 h Reduction [2, 30]: 3.7 lg cfu/mL
3 h Reduction [2, 31]: 3.3 lg cfu/mL
24 h Reduction [2, 31]: 5.0 lg cfu/mL

Free active halogen DPD (as Cl2) [4, 22]: 0.0 ppm
Indicated Species DMH stabilized NaOCl (as Cl2) [4, 22]: 0.9 ppm
Total active halogen DPD (as Cl2) [4, 22]: 0.9 ppm
Free active halogen DPD (as Cl2) [4, 23]: 0.0 ppm
Indicated Species DMH stabilized NaOCl (as Cl2) [4, 23]: 1.0 ppm
Total active halogen DPD (as Cl2) [4, 23]: 1.0 ppm
Free active halogen DPD (as Cl2) [4, 32]: 0.0 ppm
Indicated Species DMH stabilized NaOCl (as Cl2) [4, 32]: 0.9 ppm
Total active halogen DPD (as Cl2) [4, 32]: 0.9 ppm
Free active halogen DPD (as Cl2) [4, 24]: 0.0 ppm
Indicated Species DMH stabilized NaOCl (as Cl2) [4, 24]: 0.9 ppm
Total active halogen DPD (as Cl2) [4, 24]: 0.9 ppm
Structure (SMILES): CC1(C)C(=O)NC(=O)N1Cl [DMH stabilized NaOCl, 1-chloro-5,5-dimethylhydantoin]
